# Source: publication PMC8468449 (2021)
# Legend:
# [1] = system: 35-mer adenosine aptamer (DNA, aptamer) AAAAAAAAAACCTGGGGGAGTATTGCGGAGGAAGG; assay: CNT FET aptasensor, Hill-Langmuir fit; details: no added salt stated; 2 mM Tris-HCl, pH 7.4; Hill n 0.2 ± 0.03; immobilised aptamer
# [2] = system: 27-mer adenosine aptamer (DNA, aptamer) ACCTGGGGGAGTATTGCGGAGGAAGGT; assay: CNT FET aptasensor, Hill-Langmuir fit; details: no added salt stated; 2 mM Tris-HCl, pH 7.4; Hill n 0.6 ± 0.08; immobilised aptamer
smiles,measurement,setting,value
Nc1ncnc2c1ncn2[C@@H]1O[C@H](CO)[C@@H](O)[C@H]1O,Kd,[1],(1.2 ± 1.08) × 10^−9 M
same,Kd,[2],(1.6 ± 1.4) × 10^−7 M
